Patent US20210130316A1, “MORPHINAN DERIVATIVES AND COMPOSITIONS COMPRISING THE SAME FOR TREATING AUTOIMMUNE, IN[…] INFECTION RELATED DISORDERS” (TAIWANJ PHARMACEUTICALS CO., LTD, priority 2017, published 2021)

Assays:
[1] = biological target: T1, Toll-like receptor 4 (TLR4) (Homo sapiens, UniProt O00206+Q9Y6Y9); test: NF-κB-inducible SEAP reporter assay of LPS-stimulated TLR4 activity in TLR4-expressing HEK293 cells; type: cell-based; settings: for TLR-4 antagonist activity in words (summary of Table 3): 20 μM; for inhibition at 20 µM: compound 20 μM, LPS 10 ng/ml, 16-24 hours incubation, TLR4-expressing HEK293 cells, read-out: TLR-4 inhibition (%) Average
T1 construct: expressed in transfected cells; host or cells: HEK293
T1 sequence (O00206 24-839, species assumed): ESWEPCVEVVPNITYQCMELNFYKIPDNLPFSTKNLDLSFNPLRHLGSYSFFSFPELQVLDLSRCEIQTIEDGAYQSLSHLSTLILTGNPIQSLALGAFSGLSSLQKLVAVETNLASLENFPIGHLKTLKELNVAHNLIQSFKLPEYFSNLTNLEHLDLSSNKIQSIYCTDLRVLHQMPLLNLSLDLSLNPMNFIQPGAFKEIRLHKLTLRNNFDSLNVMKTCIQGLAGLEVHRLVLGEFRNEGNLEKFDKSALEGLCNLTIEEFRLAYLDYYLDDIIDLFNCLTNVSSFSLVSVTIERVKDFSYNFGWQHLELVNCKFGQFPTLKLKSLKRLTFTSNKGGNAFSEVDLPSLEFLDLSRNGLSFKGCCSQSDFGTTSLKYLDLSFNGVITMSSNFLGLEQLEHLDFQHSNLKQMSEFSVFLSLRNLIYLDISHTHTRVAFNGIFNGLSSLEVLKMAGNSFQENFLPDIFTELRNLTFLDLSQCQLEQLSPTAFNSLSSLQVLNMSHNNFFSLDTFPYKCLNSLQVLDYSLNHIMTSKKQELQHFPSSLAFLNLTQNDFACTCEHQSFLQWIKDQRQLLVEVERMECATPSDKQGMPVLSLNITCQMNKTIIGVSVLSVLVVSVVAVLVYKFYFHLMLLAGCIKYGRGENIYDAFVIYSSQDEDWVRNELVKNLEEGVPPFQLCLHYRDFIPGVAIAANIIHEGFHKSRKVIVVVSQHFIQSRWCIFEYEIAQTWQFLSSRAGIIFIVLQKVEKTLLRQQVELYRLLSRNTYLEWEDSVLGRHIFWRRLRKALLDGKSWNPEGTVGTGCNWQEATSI
T1 sequence (Q9Y6Y9 17-160 limits assumed, species assumed): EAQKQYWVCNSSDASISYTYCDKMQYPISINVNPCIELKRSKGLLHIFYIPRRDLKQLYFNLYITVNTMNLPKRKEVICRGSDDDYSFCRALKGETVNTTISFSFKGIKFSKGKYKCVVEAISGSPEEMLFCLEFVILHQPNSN
Description: Stimulation of the Toll-like receptor 4 (TLR4) was determined by assessing activation of the transcription factor NF-κB in HEK293 cells that were engineered to express TLR4. Assessment of TLR4 stimulation was based on the use of an NF-κB-inducible secreted alkaline phosphatase (SEAP) reporter system in which the SEAP reporter was under the control of a promoter inducible by NF-κB. Thus, the degree of activation of TLR4 can be indirectly quantified spectrophotometrically by measuring the amount of the SEAP reporter that is produced.
The TLR4-expressing cells were plated in HEK-Blue Detection (Invivogen, San Diego, Calif.) medium in a 96-well plate (25,000-50,000 cells/well). The cells were stimulated with lipopolysaccharides (LPS) alone or in combination with the compound of example 1. Cell culture without LPS and the compound of example 1 was defined as baseline control. To test whether the compound of example 1 could block that activation of the TLR4, the cells were treated with the compound of example 1 (20 μM) and LPS (final conc. 10 ng/ml/well). After a16-24 hours incubation period at 37° C. in a CO2 incubator, The signals of individual samples in 96-well plates were detected at O.D.650 nm with a Molecular Devices SpectraMax i3 Imaging Cytometer. The TLR4 activity was expressed in percentage of LPS alone-stimulated cells minus baseline control.

HEK293 cells = test: Cell viability assay (MTT method); type: cell-based; settings: compound 20 μM, percentage of viable LPS-stimulated cells
Description: HEK 293 cells (2.5-5.0×10^4 cells/well) were seeded in 96-well plate for overnight and treated with different compounds for 16-24 hours. Cell growth was determined by MTh-based colorimetric assays. Viability of the test cells treated with vehicle (0.5% DMSO) only was defined as 100% viable. Survival of cells after treatment with DETDs was calculated using the following formula:
Viable cell number (%)=OD570 (treated cell culture)/OD570 (vehicle control)×100.
The ell viability assay was performed by the MTT method. Cells were incubated with 45 μl of 5 mg/ml MTT for 1 hour at 37° C., and 150 μl of DMSO was added at the end of culture to dissolve the crystals. The signals of individual samples in 96-well plates were detected at O.D.570 nm with Molecular Device SpectraMax Imaging Cytometer. Cell viability was expressed in percentage of viable LPS-stimulated cells.

| Structure (SMILES) | TLR-4 antagonist activity in words (summary of Table 3) [1] | inhibition at 20 µM [1] [%] | Cell viability (%) Average (HEK293 cells) [%] |
| --- | --- | --- | --- |
| O=[N+]([O-])c1ccc(N2CC[C@@]34CCCC[C@@H]3[C@@H]2Cc2ccc(O)cc24)cc1 [Compound 3] | weak to negligible activity towards TLR-4 | 0 | 82.1 |
| Nc1ccc(N2CC[C@@]34CCCC[C@@H]3[C@@H]2Cc2ccc(O)cc24)cc1 [Compound 4] | strong antagonists of TLR-4 | 90.5 | 92.2 |
| COc1ccc2c(c1)[C@]13CCCC[C@@H]1[C@H](C2)N(c1ccc([N+](=O)[O-])c(N)c1)CC3 [Compound 5] | weak to negligible activity towards TLR-4 | 13.2 | 110.9 |
| COc1ccc2c(c1)[C@]13CCCC[C@@H]1[C@H](C2)N(c1ccc(N)cc1)CC3 [Compound 6] | moderate to mild inhibitory activity toward TLR-4 | 37.7 | 83.1 |
| CCOC(=O)Nc1ccc(N2CC[C@@]34CCCC[C@@H]3[C@@H]2Cc2ccc(OC)cc24)cc1 [Compound 7] | weak to negligible activity towards TLR-4 | 0 | 79.3 |
| COc1ccc2c(c1)[C@]13CCCC[C@@H]1[C@H](C2)N(c1ccc(NC(=O)CCCc2ccccc2)cc1)CC3 [Compound 8] | weak to negligible activity towards TLR-4 | 6 | 104.7 |
| COc1ccc2c(c1)[C@]13CCCC[C@@H]1[C@H](C2)N(S(=O)(=O)c1ccc([N+](=O)[O-])cc1)CC3 [Compound 9] | moderate to mild inhibitory activity toward TLR-4 | 23.7 | 104.1 |
| COc1ccc2c(c1)[C@]13CCCC[C@@H]1[C@H](C2)N(S(=O)(=O)c1ccc(N)cc1)CC3 [Compound 10] | moderate to mild inhibitory activity toward TLR-4 | 30 | 111.6 |
| COc1ccc2c(c1)[C@]13CCCC[C@@H]1[C@H](C2)N(CC(O)COc1ccccc1)CC3 (stereo partly drawn) [Compound 11] | remarkable inhibitions on TLR-4 | 54.5 | 88.8 |
| COc1ccc2c(c1)[C@]13CCCC[C@@H]1[C@H](C2)N(CC(O)CSc1ccccc1)CC3 (stereo partly drawn) [Compound 12] | remarkable inhibitions on TLR-4 | 59.1 | 81.3 |
| COc1ccc2c(c1)[C@]13CCCC[C@@H]1[C@H](C2)N(CC(O)CN1CCOCC1)CC3 (stereo partly drawn) [Compound 13] | weak to negligible activity towards TLR-4 | 2.8 | 101.5 |
| CC(=O)Nc1ccc(S(=O)(=O)N2CC[C@@]34CCCC[C@@H]3[C@@H]2Cc2ccc(O)cc24)cc1 [Compound 15] | moderate to mild inhibitory activity toward TLR-4 | 45.1 | 104.0 |
| Nc1ccc(S(=O)(=O)N2CC[C@@]34CCCC[C@@H]3[C@@H]2Cc2ccc(O)cc24)cc1 [Compound 16] | moderate to mild inhibitory activity toward TLR-4 | 42.1 | 75.5 |
| Nc1cc(N2CC[C@@]34CCCC[C@@H]3[C@@H]2Cc2ccc(O)cc24)ccc1[N+](=O)[O-] [Compound 17] | remarkable inhibitions on TLR-4 | 53.1 | 116.0 |
| Nc1ccc(N2CC[C@@]34CCCC[C@@H]3[C@@H]2Cc2ccc(O)cc24)cc1N [Compound 18] | remarkable inhibitions on TLR-4 | 57.7 | 143.0 |
| CC(C)N(c1ccc(N2CC[C@@]34CCCC[C@@H]3[C@@H]2Cc2ccc(O)cc24)cc1)C(C)C [Compound 19] | remarkable inhibitions on TLR-4 | 75.3 | 99.2 |
| CC(C)Nc1ccc(N2CC[C@@]34CCCC[C@@H]3[C@@H]2Cc2ccc(O)cc24)cc1 [Compound 20] | strong antagonists of TLR-4 | 99.8 | 89.9 |
| Nc1ccc(N2CC[C@@]34CCCC[C@@H]3[C@@H]2Cc2ccc(O)cc24)c(F)c1 [Compound 21] | weak to negligible activity towards TLR-4 | 13.8 | 97.4 |
| Cc1cc(N2CC[C@@]34CCCC[C@@H]3[C@@H]2Cc2ccc(O)cc24)ccc1N [Compound 22] | remarkable inhibitions on TLR-4 | 64.2 | 101.7 |
| Nc1ccc(N2CC[C@@]34CCCC[C@@H]3[C@@H]2Cc2ccc(O)cc24)c(C(F)(F)F)c1 [Compound 23] | weak to negligible activity towards TLR-4 | 22.9 | 96.2 |
| O=[N+]([O-])c1ccc(N2CC[C@@]34CCCC[C@@H]3[C@@H]2Cc2ccc(O)cc24)nc1 [Compound 24] | moderate to mild inhibitory activity toward TLR-4 | 43.5 | 103.3 |
| Nc1ccc(N2CC[C@@]34CCCC[C@@H]3[C@@H]2Cc2ccc(O)cc24)nc1 [Compound 25] | weak to negligible activity towards TLR-4 | 13.3 | 100.8 |
